Results published in publication PMC11951083, “Highly Specific Miniaturized Fluorescent Monoacylglycerol Lipase Probes Enable Translational Research” (Journal of the American Chemical Society, 2025).
≈ marks a conversion by molar mass, not a printed value. Values belong to the compound of their own block, whether it stands above or below them.

Key:
H3 (h) = H3 (h) (Homo sapiens, UniProt Q9Y5N1); assay: H3 (h) (agonist radioligand); details: read-out: Inhibition H3 (h) (agonist radioligand)
alpha1A (h) = target: T1, alpha1A (h) (Homo sapiens, UniProt P35348); assay: alpha1A (h) (antagonist radioligand); details: read-out: Inhibition alpha1A (h) (antagonist radioligand)
T1 sequence (P35348 1-466): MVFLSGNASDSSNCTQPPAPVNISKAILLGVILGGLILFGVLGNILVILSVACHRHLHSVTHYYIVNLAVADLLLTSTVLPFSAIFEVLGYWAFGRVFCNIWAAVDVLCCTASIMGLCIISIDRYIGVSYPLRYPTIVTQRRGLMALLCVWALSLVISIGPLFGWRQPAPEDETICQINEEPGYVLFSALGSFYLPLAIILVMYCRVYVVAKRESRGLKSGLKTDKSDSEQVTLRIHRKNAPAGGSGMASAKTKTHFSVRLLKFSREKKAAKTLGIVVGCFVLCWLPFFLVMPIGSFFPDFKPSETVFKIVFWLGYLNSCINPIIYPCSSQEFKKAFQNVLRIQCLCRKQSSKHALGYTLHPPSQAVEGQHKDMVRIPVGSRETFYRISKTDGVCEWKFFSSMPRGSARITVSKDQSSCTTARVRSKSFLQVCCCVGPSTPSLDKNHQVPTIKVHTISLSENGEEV

[1] = High throughput kinetic solubility measurement; format: physicochemical; details: phosphate buffer, pH 6.5, aqueous buffer, kinetic from dmso stock
N muscle-type (h) = N muscle-type (h) (antagonist radioligand); details: 10 µM
D2S (h) = D2S (h) (Homo sapiens, UniProt P14416); assay: D2S (h) (agonist radioligand); details: read-out: Inhibition D2S (h) (agonist radioligand)
kappa (h) (KOP) = kappa (h) (KOP) (Homo sapiens, UniProt P41145); assay: kappa (h) (KOP) (agonist radioligand); details: read-out: Inhibition kappa (h) (KOP) (agonist radioligand)
PPARgamma (h) = target: T2, PPARgamma (h) (Homo sapiens, UniProt P37231); assay: PPARgamma (h) (agonist radioligand); details: read-out: Inhibition PPARgamma (h) (agonist radioligand)
T2 sequence (P37231 1-505): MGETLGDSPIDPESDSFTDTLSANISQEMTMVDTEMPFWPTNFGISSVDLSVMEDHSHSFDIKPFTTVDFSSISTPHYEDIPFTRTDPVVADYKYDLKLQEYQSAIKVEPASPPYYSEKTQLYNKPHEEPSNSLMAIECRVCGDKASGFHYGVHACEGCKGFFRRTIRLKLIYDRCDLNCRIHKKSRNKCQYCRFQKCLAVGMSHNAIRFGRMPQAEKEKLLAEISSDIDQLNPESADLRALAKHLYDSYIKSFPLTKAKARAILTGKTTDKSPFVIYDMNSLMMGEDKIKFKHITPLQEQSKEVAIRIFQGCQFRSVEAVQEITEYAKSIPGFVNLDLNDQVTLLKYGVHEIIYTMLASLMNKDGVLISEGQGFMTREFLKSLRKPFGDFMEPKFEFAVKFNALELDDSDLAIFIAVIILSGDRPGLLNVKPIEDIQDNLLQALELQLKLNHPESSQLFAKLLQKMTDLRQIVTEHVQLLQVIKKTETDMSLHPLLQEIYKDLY

BZD (central) = BZD (central) (agonist radioligand); details: 10 µM
[2] = tested on: serine hydrolases in the mouse brain proteome (MBP); assay: Multiplex ABPP in mouse brain proteome; format: biochemical; details: for labeling selectivity in ABPP (covalent probes): mouse brain homogenates, broad range of concentrations; for selectivity in competitive ABPP (reversible probes): mouse brain proteome, membrane and cytosolic fraction, 1 μM
Procedure: K = [L][P] = 0.5 [L]T (FP50 − 0.5 [L]T) = FP − 0.5 [L] […]
Mouse brain sample preparation
Mouse tissues were isolated according to guidelines approved by the ethical committee of Leiden University. Male mouse brain (27 weeks old) was homogenized with glass beads (2x 1 min, bullet blender, speed 8) using cold lysis buffer (20 mM Hepes pH 7.2, 1 mM MgCl 2, 2 U/mL Benzonase). The membrane and cytosol were separated by centrifugation. The membrane fraction was resuspended in Hepes/DTT buffer. Protein concentration was determined with Bradford Assay, and samples were diluted to a final concentration of 2.0 mg/mL. Samples were snap -frozen in liquid nitrogen and stored at -80 °C until further use.
Lysate (19 µL, 2 µg/µL) was thawed on ice. For comparative ABPP (irreversible probes), 1 µL of probe (20x stock in DMSO) or pure DMSO was added to the sample, vortexed briefly, and in cubated for 30 minutes at RT. For competitive ABPP (reversible probes), 0.5 µL of the reversible probe (40x stock in DMSO) or pure DMSO (as vehicle) was added to the sample, vortexed briefly, and incubated for 30 […]
minutes at RT. Subsequently, 0.5 µL MB064 (40x stock in DMSO) was added to the proteome sample, vortexed briefly, and incubated for 10 minutes at RT, after which 0.5 µL FP-Bodipy-FL (40x stock in DMSO) was added, vortexed briefly and incubated for 10 minutes at RT. The final volume was 20 - 20.5 µL (5 - 7.5% DMSO). The reaction was quenched by the addition of 7.5 µL of 4*Laemmli-buffer (final concentrations: 60 mM Tris (pH 6.8), 2% (w/v) SDS, 10% (v/v) glycerol, 1.25% (v/v) β-mercaptoethanol, 0.01% (v/v) bromophenol blue). 10 µL (14 µg protein) of the quenched reaction mixture was resolved on 10% acrylamide SDS-PAGE (180 V, 75 min). Fluorescence was measured using a Biorad ChemiDoc MP system (fluorescence channels Cy2, Cy3, Cy5). Gels were then stained using coomassie staining and imaged for protein loading control. Labeling of the respective proteins via MB064 and FP-BODIPY was visualized in two separate channels. […]
Activity based protein profiling (ABPP)
PBMCs were thawed, washed with 1 x PBS and equal amounts of cells were exposed to DMSO (D2650; Sigma-Aldrich) or MAGL inhibitor PF (PF-06795071) in DMSO for 30 min at room temperature with concentrations ranging from 1 nM to 1000 nM. Cells were washed with 1 x PBS and lysed in ice -cold lysis buffer (ab156035; Abcam), lysates were centrifuged at 14,000 x g for 15 minutes at 4°C and supernatants were collected. For ABPP experiments, cell lysates containing equal amounts of protein were incubated with the appropriate concentration of activity -based probe for 30 min at room temperature. The reaction was quenched for 30 min by adding SDS -PAGE loading buffer (NP0007, Thermo). Samples were then separated by SDS-PAGE and bands were detected ChemiDoc Imager (Bio-Rad Laboratories). Following detection, gels were stained with SimplyBlue™ SafeStain (LC6060, Thermo) for 1 hour with gentle agitation and excess stain was removed by destaining in ddH2O for 1 h with gentle agitation. Gels were imaged and protein bands were quantified using Image Lab software (Bio-Rad Laboratories).

Sequence of kappa (h) (KOP) (P41145 whole entry): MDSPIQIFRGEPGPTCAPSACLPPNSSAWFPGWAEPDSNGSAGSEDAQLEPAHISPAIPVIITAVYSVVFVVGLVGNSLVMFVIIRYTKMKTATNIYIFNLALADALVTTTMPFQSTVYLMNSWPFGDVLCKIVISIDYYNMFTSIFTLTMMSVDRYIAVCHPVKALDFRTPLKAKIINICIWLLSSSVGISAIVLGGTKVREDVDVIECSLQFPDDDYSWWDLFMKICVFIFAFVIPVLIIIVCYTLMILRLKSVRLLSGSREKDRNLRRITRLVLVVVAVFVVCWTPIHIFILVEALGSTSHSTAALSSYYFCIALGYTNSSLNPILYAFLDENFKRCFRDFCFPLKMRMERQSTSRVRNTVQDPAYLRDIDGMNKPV
Sequence of D2S (h) (P14416 1-414 isoform P14416-2): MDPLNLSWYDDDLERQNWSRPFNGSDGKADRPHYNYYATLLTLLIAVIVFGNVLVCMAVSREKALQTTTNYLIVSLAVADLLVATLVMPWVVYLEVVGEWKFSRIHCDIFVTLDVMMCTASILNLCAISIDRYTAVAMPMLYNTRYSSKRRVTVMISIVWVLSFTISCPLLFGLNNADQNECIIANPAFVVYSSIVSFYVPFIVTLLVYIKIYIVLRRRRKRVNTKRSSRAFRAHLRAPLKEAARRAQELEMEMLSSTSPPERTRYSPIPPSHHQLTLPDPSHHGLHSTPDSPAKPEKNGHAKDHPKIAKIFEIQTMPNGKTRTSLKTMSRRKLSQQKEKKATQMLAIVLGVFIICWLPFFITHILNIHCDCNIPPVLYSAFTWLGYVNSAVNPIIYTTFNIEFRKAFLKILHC
Sequence of H3 (h) (Q9Y5N1 whole entry): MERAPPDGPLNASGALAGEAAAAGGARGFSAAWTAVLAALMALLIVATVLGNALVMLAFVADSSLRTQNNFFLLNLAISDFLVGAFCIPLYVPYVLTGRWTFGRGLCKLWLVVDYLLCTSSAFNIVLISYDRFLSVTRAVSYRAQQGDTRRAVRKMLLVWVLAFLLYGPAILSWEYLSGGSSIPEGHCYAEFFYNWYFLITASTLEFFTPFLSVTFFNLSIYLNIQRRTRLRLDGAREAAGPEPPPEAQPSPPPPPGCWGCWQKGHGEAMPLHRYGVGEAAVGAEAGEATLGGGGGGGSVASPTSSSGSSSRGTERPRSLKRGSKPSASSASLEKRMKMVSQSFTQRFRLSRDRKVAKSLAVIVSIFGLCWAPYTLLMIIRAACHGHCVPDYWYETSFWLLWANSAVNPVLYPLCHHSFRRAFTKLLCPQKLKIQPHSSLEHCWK

SMILES: O=C(OC(C(F)(F)F)C(F)(F)F)N1CC2(CC(CC3=C4C=CC=[N+]4[B-](F)(F)n4cccc43)C2)C1 [Compound 2]
inhibition at 10 µM (H3 (h)): -7.2%
inhibition at 10 µM (alpha1A (h)): -4.6%
solubility kinetic [1]: < 3 µg/mL
Inhibition N muscle-type (h) (antagonist radioligand) (N muscle-type (h)): -0,30%
inhibition at 10 µM (D2S (h)): -4.1%
inhibition at 10 µM (kappa (h) (KOP)): 5.9%
inhibition at 10 µM (PPARgamma (h)): 56.3%
Inhibition BZD (central) (agonist radioligand) (BZD (central)): -27,70%
labeling selectivity in ABPP (covalent probes) [2]: only selective irreversible labeling of the two MAGL isoforms

SMILES: O=C1CO[C@H]2CCN(C(=O)N3CC4(CC(CC5=C6C=CC(c7ccc[nH]7)=[N+]6[B-](F)(F)n6cccc65)C4)C3)C[C@H]2N1 [Compound 4a]
inhibition at 10 µM (H3 (h)): 1.8%
inhibition at 10 µM (alpha1A (h)): 45.5%
solubility kinetic [1]: < 0.3 µg/mL
Inhibition N muscle-type (h) (antagonist radioligand) (N muscle-type (h)): -1,70%
inhibition at 10 µM (D2S (h)): 3.3%
inhibition at 10 µM (kappa (h) (KOP)): 22.7%
inhibition at 10 µM (PPARgamma (h)): 20%
Inhibition BZD (central) (agonist radioligand) (BZD (central)): -4,10%
selectivity in competitive ABPP (reversible probes) [2]: no other potential off-target detectable

SMILES: O=C(O[C@H](CO)C(F)(F)F)N1CC2(CC(CC3=C4C=CC=[N+]4[B-](F)(F)n4cccc43)C2)C1 [Compound 1]
inhibition at 10 µM (H3 (h)): 5.2%
inhibition at 10 µM (alpha1A (h)): 7.6%
solubility kinetic [1]: 19 µg/mL (≈ 41.6 µM)
Inhibition N muscle-type (h) (antagonist radioligand) (N muscle-type (h)): -11,30%
inhibition at 10 µM (D2S (h)): 5.9%
inhibition at 10 µM (kappa (h) (KOP)): 7.8%
inhibition at 10 µM (PPARgamma (h)): 74.3%
Inhibition BZD (central) (agonist radioligand) (BZD (central)): -11,90%
labeling selectivity in ABPP (covalent probes) [2]: only selective irreversible labeling of the two MAGL isoforms

SMILES: O=C(OC(C(F)(F)F)C(F)(F)F)N1CC2(CC(CC3=C4C=CC(c5ccc[nH]5)=[N+]4[B-](F)(F)n4cccc43)C2)C1 [Compound 2a]
inhibition at 10 µM (H3 (h)): 7.3%
inhibition at 10 µM (alpha1A (h)): -3.4%
solubility kinetic [1]: < 1 µg/mL
Inhibition N muscle-type (h) (antagonist radioligand) (N muscle-type (h)): -9,40%
inhibition at 10 µM (D2S (h)): -2.6%
inhibition at 10 µM (kappa (h) (KOP)): 4.9%
inhibition at 10 µM (PPARgamma (h)): 20%
Inhibition BZD (central) (agonist radioligand) (BZD (central)): 0,90%
labeling selectivity in ABPP (covalent probes) [2]: only selective irreversible labeling of the two MAGL isoforms

SMILES: O=C(N1CC2(CC(CC3=C4C=CC=[N+]4[B-](F)(F)n4cccc43)C2)C1)N1CC2(CC(n3cnc(C4CC4)n3)C2)C1 [Compound 5]
inhibition at 10 µM (H3 (h)): -3.7%
inhibition at 10 µM (alpha1A (h)): 2.1%
solubility kinetic [1]: 46 µg/mL (≈ 86.6 µM)
Inhibition N muscle-type (h) (antagonist radioligand) (N muscle-type (h)): 17,00%
inhibition at 10 µM (D2S (h)): 12.6%
inhibition at 10 µM (kappa (h) (KOP)): 10.3%
inhibition at 10 µM (PPARgamma (h)): 5.6%
Inhibition BZD (central) (agonist radioligand) (BZD (central)): -16,30%
selectivity in competitive ABPP (reversible probes) [2]: no other potential off-target detectable

solubility kinetic [1]: 112 µg/mL (≈ 232 µM)
SMILES: O=C1CO[C@H]2CCN(C(=O)N3CC4(CC(CC5=C6C=CC=[N+]6[B-](F)(F)n6cccc65)C4)C3)C[C@H]2N1 [Compound 4]
selectivity in competitive ABPP (reversible probes) [2]: no other potential off-target detectable
